Read-outs that look alike come from different tables or passages of the source.
Tests used:
Experiment in all cases: Protein phosphatase inhibition assay, FDP substrate, FMP fluorescence
Format in all cases: biochemical
[1] = molecular target: T1, PTP1B (Homo sapiens, UniProt P18031)
T1 sequence (P18031 1-435): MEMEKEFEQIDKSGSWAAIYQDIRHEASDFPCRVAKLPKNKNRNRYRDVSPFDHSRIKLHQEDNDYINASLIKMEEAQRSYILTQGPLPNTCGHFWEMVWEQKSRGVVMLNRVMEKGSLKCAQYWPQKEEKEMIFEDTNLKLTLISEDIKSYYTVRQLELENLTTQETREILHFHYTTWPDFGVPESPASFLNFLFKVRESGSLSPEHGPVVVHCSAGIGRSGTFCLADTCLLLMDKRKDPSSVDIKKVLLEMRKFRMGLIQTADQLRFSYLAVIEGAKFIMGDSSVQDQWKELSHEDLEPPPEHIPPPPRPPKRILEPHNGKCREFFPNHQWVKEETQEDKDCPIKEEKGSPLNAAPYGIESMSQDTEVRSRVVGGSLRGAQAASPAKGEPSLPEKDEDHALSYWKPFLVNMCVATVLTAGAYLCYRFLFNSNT
Protocol: (§1) In order to examine the ability of the rhodanine derivatives, that is, Compounds 1˜174, to inhibit protein phosphatases, they were assayed for IC50 values through the following experiments.
(§2) For the experiments, FDP (fluorescein diphosphate) was used as a substrate for genetically recombinant enzymes to measure the fluorescence of FMP (fluorescein monophosphate). […]

[2] = molecular target: T2, CD45 (Homo sapiens, UniProt P08575); conditions: genetically recombinant enzyme, fluorescence of FMP
T2 sequence (P08575 26-1306): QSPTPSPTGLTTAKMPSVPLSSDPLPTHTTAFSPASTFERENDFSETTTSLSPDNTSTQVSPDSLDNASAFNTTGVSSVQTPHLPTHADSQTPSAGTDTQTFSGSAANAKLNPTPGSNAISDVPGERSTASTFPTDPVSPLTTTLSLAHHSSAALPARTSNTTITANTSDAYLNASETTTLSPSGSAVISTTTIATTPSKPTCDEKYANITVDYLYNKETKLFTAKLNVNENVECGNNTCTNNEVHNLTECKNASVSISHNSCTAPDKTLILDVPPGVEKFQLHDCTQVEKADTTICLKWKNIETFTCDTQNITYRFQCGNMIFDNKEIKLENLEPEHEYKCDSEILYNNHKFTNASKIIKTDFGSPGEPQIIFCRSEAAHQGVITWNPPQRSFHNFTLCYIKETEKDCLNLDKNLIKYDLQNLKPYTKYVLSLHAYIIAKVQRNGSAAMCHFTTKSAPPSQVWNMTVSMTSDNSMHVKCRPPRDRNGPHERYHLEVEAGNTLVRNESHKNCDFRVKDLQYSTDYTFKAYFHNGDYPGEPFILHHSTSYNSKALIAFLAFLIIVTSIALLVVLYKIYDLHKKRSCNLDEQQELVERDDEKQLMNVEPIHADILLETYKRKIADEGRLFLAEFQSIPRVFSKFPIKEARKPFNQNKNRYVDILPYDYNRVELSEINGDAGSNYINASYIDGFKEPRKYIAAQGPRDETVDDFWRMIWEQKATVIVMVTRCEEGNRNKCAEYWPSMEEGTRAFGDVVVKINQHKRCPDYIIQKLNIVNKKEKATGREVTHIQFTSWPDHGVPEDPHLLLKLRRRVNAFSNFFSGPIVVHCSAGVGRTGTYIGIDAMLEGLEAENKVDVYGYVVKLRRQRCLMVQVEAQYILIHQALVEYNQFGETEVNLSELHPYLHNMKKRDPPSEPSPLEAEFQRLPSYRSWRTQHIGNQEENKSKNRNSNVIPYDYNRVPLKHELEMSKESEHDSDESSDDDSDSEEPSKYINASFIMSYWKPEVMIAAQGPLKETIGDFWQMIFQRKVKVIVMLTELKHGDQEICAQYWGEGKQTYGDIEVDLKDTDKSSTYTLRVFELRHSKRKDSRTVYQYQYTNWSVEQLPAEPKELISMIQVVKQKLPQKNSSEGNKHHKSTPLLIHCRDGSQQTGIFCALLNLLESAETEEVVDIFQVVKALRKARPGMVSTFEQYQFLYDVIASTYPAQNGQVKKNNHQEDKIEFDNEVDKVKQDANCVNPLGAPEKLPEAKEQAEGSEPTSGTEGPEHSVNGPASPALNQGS
Protocol: as §1, §2

[3] = molecular target: VHR (Homo sapiens, UniProt P51452); conditions: genetically recombinant enzyme, fluorescence of FMP
VHR, sequence (P51452 whole entry): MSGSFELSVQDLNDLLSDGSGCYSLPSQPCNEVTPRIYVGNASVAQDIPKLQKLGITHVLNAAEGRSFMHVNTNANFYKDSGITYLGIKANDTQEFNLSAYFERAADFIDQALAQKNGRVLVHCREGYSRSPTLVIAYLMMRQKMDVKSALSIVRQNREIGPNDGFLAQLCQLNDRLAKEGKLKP
Protocol: as §1, §2

[4] = molecular target: T3, Cdc25C (Homo sapiens, UniProt P30307); conditions: genetically recombinant enzyme, fluorescence of FMP
T3 sequence (P30307 1-473): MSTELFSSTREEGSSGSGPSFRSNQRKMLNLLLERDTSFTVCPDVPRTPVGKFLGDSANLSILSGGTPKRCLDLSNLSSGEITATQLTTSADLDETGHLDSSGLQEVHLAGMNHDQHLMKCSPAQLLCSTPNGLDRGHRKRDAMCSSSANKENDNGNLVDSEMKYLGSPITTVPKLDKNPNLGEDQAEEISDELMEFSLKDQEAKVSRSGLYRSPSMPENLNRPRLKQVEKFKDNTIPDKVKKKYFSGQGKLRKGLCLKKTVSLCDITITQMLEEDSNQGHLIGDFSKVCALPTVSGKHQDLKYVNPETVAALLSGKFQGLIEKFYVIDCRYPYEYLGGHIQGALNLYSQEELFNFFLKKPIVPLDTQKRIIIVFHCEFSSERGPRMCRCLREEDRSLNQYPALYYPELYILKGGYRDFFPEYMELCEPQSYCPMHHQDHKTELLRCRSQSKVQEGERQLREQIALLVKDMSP
Protocol: as §1, §2

[5] = molecular target: PP1; conditions: genetically recombinant enzyme, fluorescence of FMP
Protocol: as §1, §2

[6] = molecular target: T4, Cdc25B (Homo sapiens, UniProt P30305); conditions: genetically recombinant enzyme, fluorescence of FMP
T4 sequence (P30305 1-580): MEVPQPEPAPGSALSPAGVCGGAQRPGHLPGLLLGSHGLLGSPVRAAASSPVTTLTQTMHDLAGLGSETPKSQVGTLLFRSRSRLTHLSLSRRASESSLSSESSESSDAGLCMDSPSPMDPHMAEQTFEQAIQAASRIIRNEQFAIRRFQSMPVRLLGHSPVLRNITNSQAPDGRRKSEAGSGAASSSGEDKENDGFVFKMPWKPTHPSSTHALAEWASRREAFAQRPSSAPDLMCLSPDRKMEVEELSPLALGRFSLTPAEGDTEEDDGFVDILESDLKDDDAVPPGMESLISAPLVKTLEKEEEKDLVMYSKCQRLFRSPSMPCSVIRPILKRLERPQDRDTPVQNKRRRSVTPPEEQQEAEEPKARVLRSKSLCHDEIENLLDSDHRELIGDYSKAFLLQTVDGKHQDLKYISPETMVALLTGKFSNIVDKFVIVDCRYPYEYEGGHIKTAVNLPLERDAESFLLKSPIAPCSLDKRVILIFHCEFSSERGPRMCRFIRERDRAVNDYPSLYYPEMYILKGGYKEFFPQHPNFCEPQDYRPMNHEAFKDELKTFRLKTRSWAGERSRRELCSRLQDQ
Protocol: as §1, §2

[7] = molecular target: Prl-3 (Homo sapiens, UniProt O75365); conditions: genetically recombinant enzyme, fluorescence of FMP
Prl-3, sequence (O75365 whole entry): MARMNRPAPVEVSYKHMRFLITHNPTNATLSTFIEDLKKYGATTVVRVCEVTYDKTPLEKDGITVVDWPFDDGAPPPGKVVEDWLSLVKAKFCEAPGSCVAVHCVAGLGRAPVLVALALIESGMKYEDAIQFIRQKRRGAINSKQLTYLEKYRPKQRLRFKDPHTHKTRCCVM
Source text: For the experiments, FDP (fluorescein diphosphate) was used as a substrate for genetically recombinant enzymes to measure the fluorescence of FMP (fluorescein monophosphate).

[8] = molecular target: LAR (Homo sapiens, UniProt P10586); conditions: genetically recombinant enzyme, fluorescence of FMP
LAR, sequence (P10586 30-1907): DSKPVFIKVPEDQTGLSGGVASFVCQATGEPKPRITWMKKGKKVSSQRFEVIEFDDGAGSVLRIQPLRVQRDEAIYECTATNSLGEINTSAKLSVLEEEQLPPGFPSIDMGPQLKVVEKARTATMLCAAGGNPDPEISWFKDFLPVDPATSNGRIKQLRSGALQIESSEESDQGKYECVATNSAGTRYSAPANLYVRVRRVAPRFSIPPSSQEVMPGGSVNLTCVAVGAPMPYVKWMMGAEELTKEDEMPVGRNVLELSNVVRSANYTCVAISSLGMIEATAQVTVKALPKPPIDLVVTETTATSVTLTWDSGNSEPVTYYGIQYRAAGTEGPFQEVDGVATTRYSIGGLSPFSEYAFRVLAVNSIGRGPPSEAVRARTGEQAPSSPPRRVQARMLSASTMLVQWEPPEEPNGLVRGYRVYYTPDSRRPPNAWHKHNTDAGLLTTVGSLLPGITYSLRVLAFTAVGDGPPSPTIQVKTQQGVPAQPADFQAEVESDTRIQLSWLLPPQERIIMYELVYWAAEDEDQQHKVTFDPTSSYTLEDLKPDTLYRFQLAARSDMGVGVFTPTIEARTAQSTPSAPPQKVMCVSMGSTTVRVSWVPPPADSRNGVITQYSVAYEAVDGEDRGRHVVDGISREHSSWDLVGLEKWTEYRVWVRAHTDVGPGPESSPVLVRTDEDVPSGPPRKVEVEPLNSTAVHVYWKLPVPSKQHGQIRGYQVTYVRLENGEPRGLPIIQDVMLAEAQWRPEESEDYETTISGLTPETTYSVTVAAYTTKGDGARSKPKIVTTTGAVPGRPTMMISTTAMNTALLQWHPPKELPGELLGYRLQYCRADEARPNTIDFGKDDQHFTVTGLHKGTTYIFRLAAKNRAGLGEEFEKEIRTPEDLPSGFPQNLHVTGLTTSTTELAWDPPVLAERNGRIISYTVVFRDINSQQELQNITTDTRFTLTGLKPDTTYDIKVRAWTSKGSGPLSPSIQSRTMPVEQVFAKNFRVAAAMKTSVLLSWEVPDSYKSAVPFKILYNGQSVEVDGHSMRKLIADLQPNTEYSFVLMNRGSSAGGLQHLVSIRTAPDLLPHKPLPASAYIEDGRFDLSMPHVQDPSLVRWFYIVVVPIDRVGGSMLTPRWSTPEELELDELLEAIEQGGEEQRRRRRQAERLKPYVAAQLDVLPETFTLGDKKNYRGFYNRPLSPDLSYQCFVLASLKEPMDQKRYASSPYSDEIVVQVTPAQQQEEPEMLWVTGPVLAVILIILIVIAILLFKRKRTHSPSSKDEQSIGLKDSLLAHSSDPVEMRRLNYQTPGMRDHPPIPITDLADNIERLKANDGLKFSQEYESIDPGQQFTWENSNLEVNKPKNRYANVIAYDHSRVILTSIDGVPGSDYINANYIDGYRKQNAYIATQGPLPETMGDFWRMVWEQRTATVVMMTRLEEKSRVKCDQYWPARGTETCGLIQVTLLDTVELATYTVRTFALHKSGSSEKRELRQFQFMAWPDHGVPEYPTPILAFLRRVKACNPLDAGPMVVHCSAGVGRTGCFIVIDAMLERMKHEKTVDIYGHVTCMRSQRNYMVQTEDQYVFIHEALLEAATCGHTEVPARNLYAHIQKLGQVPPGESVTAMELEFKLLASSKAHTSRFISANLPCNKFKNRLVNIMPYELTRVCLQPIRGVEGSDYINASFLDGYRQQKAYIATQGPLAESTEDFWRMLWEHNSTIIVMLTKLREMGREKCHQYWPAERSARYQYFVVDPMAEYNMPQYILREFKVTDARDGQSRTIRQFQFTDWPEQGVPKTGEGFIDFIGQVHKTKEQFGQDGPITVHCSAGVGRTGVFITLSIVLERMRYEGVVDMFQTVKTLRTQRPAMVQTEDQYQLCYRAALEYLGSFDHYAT
Protocol: as §1, §2

[9] = molecular target: Yop (Yersinia enterocolitica, UniProt P15273); conditions: genetically recombinant enzyme, fluorescence of FMP
Yop, sequence (P15273 whole entry): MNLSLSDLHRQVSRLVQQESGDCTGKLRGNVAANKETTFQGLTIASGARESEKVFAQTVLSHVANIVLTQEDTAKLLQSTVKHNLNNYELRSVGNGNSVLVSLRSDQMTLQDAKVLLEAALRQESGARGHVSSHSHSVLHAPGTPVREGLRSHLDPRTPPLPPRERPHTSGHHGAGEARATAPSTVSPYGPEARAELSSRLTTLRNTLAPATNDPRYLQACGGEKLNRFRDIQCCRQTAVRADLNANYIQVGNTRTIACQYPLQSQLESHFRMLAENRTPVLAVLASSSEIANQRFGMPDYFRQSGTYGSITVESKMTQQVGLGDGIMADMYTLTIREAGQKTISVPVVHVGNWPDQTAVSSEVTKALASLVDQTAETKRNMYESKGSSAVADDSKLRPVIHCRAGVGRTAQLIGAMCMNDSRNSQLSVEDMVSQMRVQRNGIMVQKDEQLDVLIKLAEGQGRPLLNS
Protocol: as §1, §2

[10] = molecular target: pp2A; conditions: genetically recombinant enzyme, fluorescence of FMP
Protocol: as §1, §2

[11] = molecular target: T5, Cdc25A (Homo sapiens, UniProt P30304); conditions: genetically recombinant enzyme, fluorescence of FMP
T5 sequence (P30304 1-524): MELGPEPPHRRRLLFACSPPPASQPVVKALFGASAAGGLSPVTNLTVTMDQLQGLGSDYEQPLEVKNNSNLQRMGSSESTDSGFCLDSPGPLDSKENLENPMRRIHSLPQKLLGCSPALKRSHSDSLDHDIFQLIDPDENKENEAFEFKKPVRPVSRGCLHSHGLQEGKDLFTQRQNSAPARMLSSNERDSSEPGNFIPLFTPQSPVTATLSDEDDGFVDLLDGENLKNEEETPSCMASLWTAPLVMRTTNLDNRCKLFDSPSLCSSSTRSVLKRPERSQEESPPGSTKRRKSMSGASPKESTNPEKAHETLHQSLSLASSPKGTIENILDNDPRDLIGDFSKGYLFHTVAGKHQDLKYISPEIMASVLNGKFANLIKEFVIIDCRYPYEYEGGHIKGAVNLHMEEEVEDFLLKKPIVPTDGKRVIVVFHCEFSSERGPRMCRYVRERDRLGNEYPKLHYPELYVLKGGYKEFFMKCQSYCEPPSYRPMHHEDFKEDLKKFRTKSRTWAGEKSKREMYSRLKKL
Protocol: as §1, §2

[12] = genetically recombinant enzyme, FDP substrate, fluorescence of FMP, read-out: IC50 PTP1B

## O=C1NC(=S)S/C1=C\c1cc(Br)ccc1OCc1ccc(-c2ccccc2)cc1 [Compound 18, 5-[2-(biphenyl-ylmethoxy)-5-bromo-benzylidene]-2-thioxo-thiazolidin-4-one]
[1]; [12]
  IC50: 2.1 µM
[2]
  IC50: > 20 µM

## O=C1NC(=S)S/C1=C\c1cc(Br)ccc1OCc1cccc(C(F)(F)F)c1 [Compound 19, 5-[5-bromo-2-(3-trifluoromethyl-benzyloxy)-benzylidene]-2-thioxo-thiazolidin-4-one]
[3]
  IC50: > 20 µM
[1]; [12]
  IC50: 5 µM
[2]
  IC50: > 20 µM
[4]
  IC50: > 20 µM

## O=C1NC(=S)S/C1=C\c1cc2ccccc2cc1OCc1ccccc1 [Compound 2, 5-(3-benzyloxy-naphthalen-2-ylmethylene)-2-thioxo-thiazolidin-4-one]
[5]
  IC50: > 20 µM
[1]; [12]
  IC50: > 20 µM
[4]
  IC50: > 20 µM

## O=C1NC(=S)S/C1=C\c1cc(Br)ccc1OCc1ccccc1 [Compound 1, 5-(2-benzyloxy-5-bromobenzylidene)-2-thioxo-thiazolidin-4-one]
[1]
  IC50: > 20 µM

## O=C1NC(=S)S/C1=C\c1cc(Br)ccc1OCCN1c2ccccc2Cc2ccccc21 [Compound 142, 5-2-[2-(9H-acridin-10-yl)-ethoxy]-5-bromo-benzylidene-2-thioxo-thiazolidin-4-one]
[1]; [12]
  IC50: 13 µM
[6]
  IC50: 4.4 µM
[4]
  IC50: > 20 µM
[7]
  IC50: 3.6 µM

## CCN(CC)c1ccc(/C=C2\SC(=S)NC2=O)c(OCc2ccccc2)c1 [Compound 32, 5-(2-benzyloxy-4-diethylamino-benzylidene)-2-thioxo-thiazolidin-4-one]
[3]
  IC50: > 20 µM
[1]; [12]
  IC50: > 20 µM
[4]
  IC50: > 20 µM
[8]
  IC50: > 20 µM
[7]
  IC50: 1.34 µM

## CN(CCOc1ccc(Br)cc1/C=C1\SC(=S)NC1=O)C(=O)OC(C)(C)C [Compound 157, 2-[4-bromo-2-(4-oxo-2-thioxo-thiazolidin-5-ylidenemethyl)-phenoxy]-ethyl-methyl-carbamic acid t-butyl ester]
[1]; [12]
  IC50: > 20 µM
[9]
  IC50: > 20 µM
[8]
  IC50: > 20 µM
[7]
  IC50: 6.2 µM

## O=C1NC(=S)S/C1=C\c1cc(Br)ccc1OCCc1ccccc1 [Compound 4, 5-(5-bromo-2-phenethyloxy-benzylidene)-2-thioxo-thiazolidin-4-one]
[5]
  IC50: > 20 µM
[1]; [12]
  IC50: 10 µM
[10]
  IC50: > 20 µM

## O=C1NC(=S)S/C1=C\c1cc(Br)ccc1OCCn1c2ccccc2c2ccccc21 [Compound 141, 5-[5-bromo-2-(2-carbazol-9-yl-ethoxy)-benzylidene]-2-thioxo-thiazolidin-4-one]
[1]; [12]
  IC50: 47 µM
[11]
  IC50: > 20 µM
[6]
  IC50: 2.7 µM
[7]
  IC50: 1.6 µM

From patent US8148541B2, “Rhodanine derivatives, a process for the preparation thereof and pharmaceutical composition containing the same” (Korea Research Institute of Bioscience and Biotechnology, priority 2006, dated 2012)
